Earlier results as cited in patent publication US20050197398A1, “Therapeutic agent for hepatic disease” (AJINOMOTO CO., INC, priority 2002, published 2005).

What was measured:
[1] = system: rat primary culture hepatocytes; conditions: D-galactosamine loading
[2] = system: D-galactosamine-induced liver failure rat model

C[C@H](N)C(=O)O [alanine]
lactic dehydrogenase extracellular overflow [1]: suppress an increase of lactic dehydrogenase extracellular overflow
liver failure [2]: improves liver failure
level of ATP ([2]; ATP becomes lower in liver failure): raises the level of ATP
